# Source: patent publication US20240228506A1, “RIPK1 INHIBITORS AND METHODS OF USE” (Merck Sharp & Dohme LLC, priority 2021, published 2024)
# Target: T1, GST-RIPK1 (recombinant GST-RIPK1 kinase domain (residues 1-327)) (Homo sapiens, UniProt Q13546)
# T1 construct: recombinant GST-RIPK1 kinase domain (residues 1-327) enzyme; made in house; host or cells: baculovirus-transfected Sf21 insect cells
# T1 sequence (Q13546 1-327): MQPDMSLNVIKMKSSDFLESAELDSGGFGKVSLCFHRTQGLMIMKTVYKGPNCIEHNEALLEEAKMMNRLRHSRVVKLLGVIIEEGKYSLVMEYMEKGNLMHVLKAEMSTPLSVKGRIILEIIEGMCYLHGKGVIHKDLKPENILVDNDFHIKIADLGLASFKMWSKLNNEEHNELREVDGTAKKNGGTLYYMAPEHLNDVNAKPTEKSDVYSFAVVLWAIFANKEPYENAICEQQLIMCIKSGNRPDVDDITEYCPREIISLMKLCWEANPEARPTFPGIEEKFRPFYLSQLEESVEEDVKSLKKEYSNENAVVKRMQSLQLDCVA
# Assay: RIPK1-ADP-Glo enzymatic assay
# Format: biochemical
# Conditions: 25 nM GST-RIPK1, 300 μM ATP, 3 μM dephosphorylated-MBP; 30 minutes pre-incubation, 150 minutes reaction; ten-point titration
# Procedure: The enzymatic activity of RIPK1 is measured using an assay derived from ADP-Glo kit (Promega™), which provides a luminescent-based ADP detection system. Specifically, the ADP generated by RIPK1 kinase is proportionally detected as luminescent signals in a homogenous fashion. In this context, the assessment of the inhibitory effect of small molecules (EC50) is measured by the effectiveness of the compounds to inhibit the ATP to ADP conversion by RIPK1. In this assay, the potency (EC50) of each compound was determined from a ten-point (1:3 serial dilution; top compound concentration of 100000 nM) titration curve using the following outlined procedure. To each well of a white ProxiPlus 384 well-plate, […] of compound (1% DMSO in final assay volume of 3 μL) was dispensed, followed by the addition of 2 μL of 1× assay buffer (25 mM Hepes 7.3, 20 mM MgCl2, 50 mM NaCl, 1 mM DTT, 0.005% Tween20, and 0.02% BSA) containing 37.5 nM of GST-RIPK1 (recombinant GST-RIPK1 kinase domain (residues 1-327) enzyme produced from baculovirus-transfected Sf21 cells: MW=62 kDa). Plates were placed in an ambient temperature humidified chamber for a 30 minutes pre-incubation with compound. Subsequently, each reaction was initiated by the addition of 1 μL 1×assay buffer containing 900 μM ATP and […]. The final reaction in each well of 3 μL consists of 25 nM of GST-RIPK1, 300 μM ATP, and 3 μM dephosphorylated-MBP. Kinase reactions were allowed to proceed for 150 minutes prior to adding ADP-Glo reagents per Promega's outlined kit protocol. Dose-response curves were generated by plotting percent effect (% product conversion; Y-axis) vs. Log10 compound concentrations (X-axis). EC50 values were calculated using a non-linear regression, four-parameters sigmoidal dose-response model.
row,IC50 [nM],Compound
1,47,"CC1(C(=O)N2C[C@@H]3C[C@H]2c2cncc(C#N)c2O3)CCC1 [Compound 1-12, (2S,5S)-4-(1-methylcyclobutane-1-carbonyl)-2,3,4,5-tetrahydro-2,5-methanopyrido[3,4-f][1,4]oxazepine-9-carbonitrile]"
2,130,"N#Cc1cncc2c1O[C@H]1C[C@@H]2N(C(=O)C2(C(F)(F)F)CCCC2)C1 [Compound 1-13, (2S,5S)-4-[1-(trifluoromethyl)cyclopentane-1-carbonyl]-2,3,4,5-tetrahydro-2,5-methanopyrido[3,4-f][1,4]oxazepine-9-carbonitrile]"
3,51,"N#Cc1cncc2c1O[C@H]1C[C@@H]2N(C(=O)C2(C(F)F)CCCC2)C1 [Compound 1-14, (2S,5S)-4-[1-(difluoromethyl)cyclopentane-1-carbonyl]-2,3,4,5-tetrahydro-2,5-methanopyrido[3,4-f][1,4]oxazepine-9-carbonitrile]"
4,99,"CC(C)(CC(F)F)C(=O)N1C[C@@H]2C[C@H]1c1cncc(C#N)c1O2 [Compound 1-15, (2S,5S)-4-(4,4-difluoro-2,2-dimethylbutanoyl)-2,3,4,5-tetrahydro-2,5-methanopyrido[3,4-f][1,4]oxazepine-9-carbonitrile]"
5,84,"Cc1ncc2c(c1C#N)O[C@H]1C[C@@H]2N(C(=O)C(C)(C)C(F)F)C1 [Compound 1-18, (2S,5S)-4-(3,3-difluoro-2,2-dimethylpropanoyl)-8-methyl-2,3,4,5-tetrahydro-2,5-methanopyrido[3,4-f][1,4]oxazepine-9-carbonitrile]"
6,24,"N#Cc1cncc2c1O[C@H]1C[C@@H]2N(C(=O)C23CCC(C(F)F)(CC2)C3)C1 [Compound 1-19, (2S,5S)-4-[4-(difluoromethyl)bicyclo[2.2.1]heptane-1-carbonyl]-2,3,4,5-tetrahydro-2,5-metanopyrido[3,4-f][1,4]oxazepine-9-carbonitrile]"
7,89,"CC(C)(CC#N)C(=O)N1C[C@@H]2C[C@H]1c1cncc(C#N)c1O2 [Compound 1-20, (2S,5S)-4-(3-cyano-2,2-dimethylpropanoyl)-2,3,4,5-tetrahydro-2,5-methanopyrido[3,4-f][1,4]oxazepine-9-carbonitrile]"
8,366,"CCC(C#N)(CC)C(=O)N1C[C@@H]2C[C@H]1c1cncc(C#N)c1O2 [Compound 1-21, (2S,5S)-4-(2-cyano-2-ethylbutanoyl)-2,3,4,5-tetrahydro-2,5-methanopyrido[3,4-f][1,4]oxazepine-9-carbonitrile]"
9,55,"CC(F)(F)C1(C(=O)N2C[C@@H]3C[C@H]2c2cncc(C#N)c2O3)CCC1 [Compound 1-22, (2S,5S)-4-[1-(1,1-difluoroethyl)cyclobutane-1-carbonyl]-2,3,4,5-tetrahydro-2,5-methanopyrido[3,4-f][1,4]oxazepine-9-carbonitrile]"
10,88,"N#Cc1cncc2c1O[C@H]1C[C@@H]2N(C(=O)C2(C(F)F)CCC2)C1 [Compound 1-23, (2S,5S)-4-[1-(difluoromethyl)cyclobutane-1-carbonyl]-2,3,4,5-tetrahydro-2,5-methanopyrido[3,4-f][1,4]oxazepine-9-carbonitrile]"
11,288,"COC(C)(C)C(=O)N1C[C@@H]2C[C@H]1c1cncc(C#N)c1O2 [Compound 1-24, (2S,5S)-4-(2-methoxy-2-methylpropanoyl)-2,3,4,5-tetrahydro-2,5-methanopyrido[3,4-f][1,4]oxazepine-9-carbonitrile]"
12,119,"CC(C)(C(=O)N1C[C@@H]2C[C@H]1c1cncc(C#N)c1O2)C1CCC1 [Compound 1-25, (2S,5S)-4-(2-cyclobutyl-2-methylpropanoyl)-2,3,4,5-tetrahydro-2,5-methanopyrido[3,4-f][1,4]oxazepine-9-carbonitrile]"
13,313,"N#Cc1cncc2c1O[C@H]1C[C@@H]2N(C(=O)C23CCC(CC2)OC3)C1 [Compound 1-26, (2S,5S)-4-(2-oxabicyclo[2.2.2]octane-4-carbonyl)-2,3,4,5-tetrahydro-2,5-methanopyrido[3,4-f][1,4]oxazepine-9-carbonitrile]"
14,221,"CC(F)(F)C1(C(=O)N2C[C@@H]3C[C@H]2c2cncc(C#N)c2O3)CC1 [Compound 1-27, (2S,5S)-4-[1-(1,1-difluoroethyl)cyclopropane-1-carbonyl]-2,3,4,5-tetrahydro-2,5-methanopyrido[3,4-f][1,4]oxazepine-9-carbonitrile]"
15,66,"CC1(C(=O)N2C[C@@H]3C[C@H]2c2cncc(C#N)c2O3)CCC(F)(F)C1 (stereo partly drawn) [Compound 1-30, (2S,5S)-4-(3,3-difluoro-1-methylcyclopentane-1-carbonyl)-2,3,4,5-tetrahydro-2,5-methanopyrido[3,4-f][1,4]oxazepine-9-carbonitrile]"
16,54,"N#Cc1cncc2c1O[C@H]1C[C@@H]2N(C(=O)C23CCC(C2)C3)C1 [Compound 1-31, (2S,5S)-4-(bicyclo[2.1.1]hexane-1-carbonyl)-2,3,4,5-tetrahydro-2,5-methanopyrido[3,4-f][1,4]oxazepine-9-carbonitrile]"
17,24,"CC(C)C(C)(C)C(=O)N1C[C@@H]2C[C@H]1c1cncc(C#N)c1O2 [Compound 1-34, (2S,5S)-4-(2,2,3-trimethylbutanoyl)-2,3,4,5-tetrahydro-2,5-methanopyrido[3,4-f][1,4]oxazepine-9-carbonitrile]"
18,483,"CC(C)(CC(F)(F)F)C(=O)N1C[C@@H]2C[C@H]1c1cncc(C#N)c1O2 [Compound 1-35, (2S,5S)-4-(4,4,4-trifluoro-2,2-dimethylbutanoyl)-2,3,4,5-tetrahydro-2,5-methanopyrido[3,4-f][1,4]oxazepine-9-carbonitrile]"
19,973,"CC1(C(=O)N2C[C@@H]3C[C@H]2c2cncc(C#N)c2O3)CCC(F)(F)CC1 [Compound 1-36, (2S,5S)-4-(4,4-difluoro-1-methylcyclohexane-1-carbonyl)-2,3,4,5-tetrahydro-2,5-methanopyrido[3,4-f][1,4]oxazepine-9-carbonitrile]"
20,114,"CC(C)(CF)C(=O)N1C[C@@H]2C[C@H]1c1cncc(C#N)c1O2 [Compound 1-42, (2S,5S)-4-(3-fluoro-2,2-dimethylpropanoyl)-2,3,4,5-tetrahydro-2,5-methanopyrido[3,4-f][1,4]oxazepine-9-carbonitrile]"
21,491,"CCC(F)(F)C(C)(C)C(=O)N1C[C@@H]2C[C@H]1c1cncc(C#N)c1O2 [Compound 1-43, (2S,5S)-4-(3,3-difluoro-2,2-dimethylpentanoyl)-2,3,4,5-tetrahydro-2,5-methanopyrido[3,4-f][1,4]oxazepine-9-carbonitrile]"
22,254,"N#Cc1cncc2c1O[C@H]1C[C@@H]2N(C(=O)C2(CC(F)F)CCC2)C1 [Compound 1-44, (2S,5S)-4-[1-(2,2-difluoroethyl)cyclobutane-1-carbonyl]-2,3,4,5-tetrahydro-2,5-methanopyrido[3,4-f][1,4]oxazepine-9-carbonitrile]"
23,330,"N#Cc1cncc2c1O[C@H]1C[C@@H]2N(C(=O)C2CC3(CCCC3)C2)C1 [Compound 1-45, (2S,5S)-4-(spiro[3.4]octane-2-carbonyl)-2,3,4,5-tetrahydro-2,5-methanopyrido[3,4-f][1,4]oxazepine-9-carbonitrile]"
